The text below walks through data of patent US20260042764A1, “COMPOSITIONS AND METHODS FOR INHIBITION OF KRAS” (TheRas, Inc., priority 2022, published 2026).

Bounds are passed on as bounds.

The target in assay [1] is T1, Avi-KRAS G12D (1-169) GppNHp/RAF1 RBD-3xFLAG (52-151) (Homo sapiens, UniProt P01116, G12D).
T1 construct: Avi-KRAS G12D (1-169)
Kind of assay: Raf1-KRAS G12D-GppNHP disruption HTRF assay (Biological Example 1). The format is binding. The conditions noted are these: KRAS G12D-GppNHp/RAF1 RBD HTRF. The procedure, abridged: (§1)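 Compound disruption of KRAS-GppNHp/RAF1 RBD binding read by HTRF after two sequential 1 h room-temperature incubations (protein mix, then detection reagents), shaken at 700 rpm. Buffer Tris pH 7.5 with MgCl2, BSA, Tween and 10% DMSO; results given as percent activity relative to DMSO (100%).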
In general terms: Time-resolved FRET reads energy transfer from a long-lived donor to a nearby acceptor.

Assay [2] deals with T2, Avi-KRAS G12R (1-169) GppNHp/RAF1 RBD-3xFLAG (52-151) (Homo sapiens, UniProt P01116, G12R).
T2 construct: Avi-KRAS G12R (1-169)
T2 sequence (P01116 1-169 isoform P01116-2 G12R): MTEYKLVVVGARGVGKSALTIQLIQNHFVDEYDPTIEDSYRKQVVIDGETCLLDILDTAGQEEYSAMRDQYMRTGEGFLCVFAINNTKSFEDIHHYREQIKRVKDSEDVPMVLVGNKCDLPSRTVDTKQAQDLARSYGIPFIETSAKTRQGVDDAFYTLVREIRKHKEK
Kind of assay: Raf1-KRAS G12R-GppNHP disruption HTRF assay (Biological Example 1). The format is binding. To be noted: KRAS G12R-GppNHp/RAF1 RBD HTRF. In outline: as §1

The target of assay [3] is T3, Avi-KRAS G12V (1-169) GppNHp/RAF1 RBD-3xFLAG (52-151) (Homo sapiens, UniProt P01116, G12V).
T3 construct: Avi-KRAS G12V (1-169)
T3 sequence (P01116 1-169 isoform P01116-2 G12V): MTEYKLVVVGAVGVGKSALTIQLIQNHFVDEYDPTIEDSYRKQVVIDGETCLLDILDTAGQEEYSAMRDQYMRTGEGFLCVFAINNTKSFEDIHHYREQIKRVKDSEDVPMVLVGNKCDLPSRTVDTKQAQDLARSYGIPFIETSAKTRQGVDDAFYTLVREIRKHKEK
Kind of assay: Raf1-KRAS G12V-GppNHP disruption HTRF assay (Biological Example 1). To be noted: KRAS G12V-GppNHp/RAF1 RBD HTRF. The format is binding. The procedure, abridged: as §1

The target in assay [4] is T4, Avi-KRAS WT (1-169) GppNHp/RAF1 RBD-3xFLAG (52-151) (Homo sapiens, UniProt P01116).
T4 construct: Avi-KRAS WT (1-169)
T4 sequence (P01116 1-169 isoform P01116-2): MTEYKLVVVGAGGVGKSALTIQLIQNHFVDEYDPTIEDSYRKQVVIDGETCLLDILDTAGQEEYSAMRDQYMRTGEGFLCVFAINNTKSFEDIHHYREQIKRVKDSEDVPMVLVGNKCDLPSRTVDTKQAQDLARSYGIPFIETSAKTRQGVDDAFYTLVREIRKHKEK
Kind of assay: Raf1-KRAS WT-GppNHP disruption HTRF assay (Biological Example 1). To be noted: KRAS WT-GppNHp/RAF1 RBD HTRF. The format is binding. The procedure, abridged:
as §1

In the next assay the test system is GP2d cells (KRAS G12D). Kind of assay: Cell-based pERK HTRF assay in GP2d cell (Biological Example 2). The conditions noted are these: GP2d (KRAS G12D) cells, pERK HTRF. In outline: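 Treatment with test compounds lasted one hour in DMEM containing 10% FBS, with DMSO held at 0.25%. Dilution series: 9 points, half-log spacing, highest 1 μM or 100 nM. Lysates were incubated 4–24 h at room temperature with antibody mix, then HTRF was read at 320 nm excitation.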

In a further assay the test system is SW620 cells (KRAS G12V). Kind of assay: Cell-based pERK HTRF assay in SW620 cell (Biological Example 4). The conditions noted are these: pERK HTRF. The procedure, abridged: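 SW620 (KRAS G12V) cells seeded at 3×10^4/well in RPMI, 10% FBS, then treated next day for 4 h with a 9-point half-log series from 1 μM top (0.25% DMSO). Lysates analyzed for pERK by HTRF (Eu cryptate/d2 antibodies, 4–24 h at room temperature), excitation 320 nm, emission 615 nm.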

[5] abbreviates: Homo sapiens, SW-620, SW620 (KRAS G12V) cells.

T1 sequence (P01116 1-169 isoform P01116-2 G12D): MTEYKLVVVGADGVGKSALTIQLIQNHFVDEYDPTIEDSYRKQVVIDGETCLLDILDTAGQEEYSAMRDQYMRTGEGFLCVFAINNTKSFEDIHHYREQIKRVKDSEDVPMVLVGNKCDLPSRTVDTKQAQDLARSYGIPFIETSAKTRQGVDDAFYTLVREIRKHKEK

What is called IC50 is the point on the concentration scale where inhibition reaches its midpoint. `CC(=O)N1CC[C@](C)(N(C)c2nc(OC[C@@]34CCCN3C[C@H](F)C4)nc3c(F)c(-c4ccc(F)c5sc(N)c(C#N)c45)c(C(F)(F)F)cc23)C1` [Compound 505]: the half-inhibitory concentration (IC50) in assay [1] was 1000 to 10000 nM; in assay [2], 1000 to 10000 nM; in assay [3], 1000 to 10000 nM; in assay [4], 1000 to 10000 nM; with GP2d cells (KRAS G12D) (GP2d), below 100 nM; with SW620 cells (KRAS G12V) (setting [5]), 100 to 1000 nM.

On to `CCC(=O)N1CC[C@](C)(N(C)c2nc(OC[C@@]34CCCN3C[C@H](F)C4)nc3c(F)c(-c4ccc(F)c5sc(N)c(C#N)c45)c(C(F)(F)F)cc23)C1` [Compound 506], for which the concentration for half-maximal inhibition (IC50) in assay [1] is 100 to 1000 nM; in assay [2], 1000 to 10000 nM; in assay [3], 1000 to 10000 nM; in assay [4], 1000 to 10000 nM; in the assay with GP2d cells (KRAS G12D) (GP2d), below 100 nM; with SW620 cells (KRAS G12V) (setting [5]), below 100 nM.

Take `N#Cc1c(N)sc2c(F)ccc(-c3c(C(F)(F)F)cc4c(N5CCc6oncc6C5)nc(OC[C@@]56CCCN5C[C@H](F)C6)nc4c3F)c12` [Compound 507]: the 50% inhibitory concentration (IC50) in assay [1] was 100 to 1000 nM; in assay [2], 100 to 1000 nM; in assay [3], 1000 to 10000 nM; in assay [4], 1000 to 10000 nM; in the assay on GP2d cells (KRAS G12D) (GP2d), below 100 nM; with SW620 cells (KRAS G12V) (setting [5]), below 100 nM.

Take `N#Cc1c(N)sc2c(F)ccc(-c3c(C(F)(F)F)cc4c(N5CC6OCC5C6O)nc(OC[C@@]56CCCN5C[C@H](F)C6)nc4c3F)c12` (stereo partly drawn) [Compound 508]: the half-maximal inhibitory concentration (IC50) was 100 to 1000 nM in assay [1]; 100 to 1000 nM in assay [2]; 100 to 1000 nM in assay [3]; 100 to 1000 nM in assay [4]; below 100 nM in the assay on GP2d cells (KRAS G12D) (GP2d); below 100 nM in the assay on SW620 cells (KRAS G12V) (setting [5]).

As for `COC1C2CN(c3nc(OC[C@@]45CCCN4C[C@H](F)C5)nc4c(F)c(-c5ccc(F)c6sc(N)c(C#N)c56)c(C(F)(F)F)cc34)C1CO2` (stereo partly drawn) [Compound 509], the half-maximal inhibitory concentration (IC50) is 100 to 1000 nM in assay [1]; 100 to 1000 nM in assay [2]; 100 to 1000 nM in assay [3]; 100 to 1000 nM in assay [4]; below 100 nM in the assay on GP2d cells (KRAS G12D) (GP2d); below 100 nM in the assay with SW620 cells (KRAS G12V) (setting [5]).

As to `C[C@@H]1Cn2nc(C(=O)N(C)C)cc2CN1c1nc(OC[C@@]23CCCN2C[C@H](F)C3)nc2c(F)c(-c3ccc(F)c4sc(N)c(C#N)c34)c(C(F)(F)F)cc12` [Compound 510], the half-maximal inhibitory concentration (IC50) is 1000 to 10000 nM in assay [1]; 100 to 1000 nM in assay [2]; 1000 to 10000 nM in assay [3]; 1000 to 10000 nM in assay [4]; below 100 nM with GP2d cells (KRAS G12D) (GP2d); below 100 nM with SW620 cells (KRAS G12V) (setting [5]).

Take `N#Cc1c(N)sc2c(F)ccc(-c3c(C(F)(F)F)cc4c(N5CCn6nc(C(=O)N7CCC(O)C7)cc6C5)nc(OCC56CCCN5CC(F)C6)nc4c3F)c12` (stereo not drawn) [Compound 513]: the IC50 was 100 to 1000 nM in assay [1]; 100 to 1000 nM in assay [2]; 100 to 1000 nM in assay [3]; 100 to 1000 nM in assay [4]; below 100 nM in the assay with GP2d cells (KRAS G12D); 100 to 1000 nM with SW620 cells (KRAS G12V) (SW620 (KRAS G12V) cells).

With `CC(=O)N1CC[C@@H]2[C@H]1CN2c1nc(OC[C@@]23CCCN2C[C@H](F)C3)nc2c(F)c(-c3ccc(F)c4sc(N)c(C#N)c34)c(C(F)(F)F)cc12` [Compound 514], the IC50 was 100 to 1000 nM in assay [1]; 100 to 1000 nM in assay [2]; 100 to 1000 nM in assay [3]; 100 to 1000 nM in assay [4]; below 100 nM in the assay on GP2d cells (KRAS G12D) (GP2d); below 100 nM in the assay on SW620 cells (KRAS G12V) (setting [5]).

`CCC(=O)N1CC[C@@H]2[C@H]1CN2c1nc(OC[C@@]23CCCN2C[C@H](F)C3)nc2c(F)c(-c3ccc(F)c4sc(N)c(C#N)c34)c(C(F)(F)F)cc12` [Compound 515]: the concentration for half-maximal inhibition (IC50) in assay [1] is 100 to 1000 nM; in assay [2], 100 to 1000 nM; in assay [3], 100 to 1000 nM; in assay [4], 100 to 1000 nM; with GP2d cells (KRAS G12D) (GP2d) it was below 100 nM; in the assay on SW620 cells (KRAS G12V) (setting [5]) it was below 100 nM.

`[2H]C1([2H])CN2C[C@H](F)C[C@]2(COc2nc(N(C)[C@@H]3CCN(C(=O)C4CC4)[C@@H]3C)c3cc(C(F)(F)F)c(-c4ccc(F)c5sc(N)c(C#N)c45)c(F)c3n2)C1` [Compound 522]: the IC50 in assay [1] was 100 to 1000 nM; in assay [2], below 100 nM; in assay [3] it was 100 to 1000 nM; in assay [4], below 100 nM; in the assay on GP2d cells (KRAS G12D) (GP2d) it was below 100 nM; in the assay on SW620 cells (KRAS G12V) (setting [5]), below 100 nM.
